Measurements from ChEMBL document CHEMBL1136926 (J Med Chem, 2009).
Positions of bridges follow the written chain, without caps; N, C: chain ends. Non-standard residues stand in square brackets, D forms with d. Residues, ends and D or L forms follow the SMILES beside them. Phe(4-NO2) = N[C@@H](Cc1ccc([N+](=O)[O-])cc1)C(=O)O; Phe(4-Cl) = N[C@@H](Cc1ccc(Cl)cc1)C(=O)O; 1Nal = N[C@@H](Cc1cccc2ccccc12)C(=O)O; 2Nal = N[C@@H](Cc1ccc2ccccc2c1)C(=O)O; Tic = O=C(O)[C@@H]1Cc2ccccc2CN1; Pen = CC(C)(S)[C@H](N)C(=O)O

Columns and labels:
Urotensin-2 receptor [1] = molecular target: T1, Urotensin-2 receptor (Homo sapiens, UniProt Q9UKP6); assay: Displacement of [125I]urotensin-2 from human UT2 receptor expressed in CHO-K1 cells by liquid scintillation counting; assay type: cell-based
T1 sequence (Q9UKP6 whole entry): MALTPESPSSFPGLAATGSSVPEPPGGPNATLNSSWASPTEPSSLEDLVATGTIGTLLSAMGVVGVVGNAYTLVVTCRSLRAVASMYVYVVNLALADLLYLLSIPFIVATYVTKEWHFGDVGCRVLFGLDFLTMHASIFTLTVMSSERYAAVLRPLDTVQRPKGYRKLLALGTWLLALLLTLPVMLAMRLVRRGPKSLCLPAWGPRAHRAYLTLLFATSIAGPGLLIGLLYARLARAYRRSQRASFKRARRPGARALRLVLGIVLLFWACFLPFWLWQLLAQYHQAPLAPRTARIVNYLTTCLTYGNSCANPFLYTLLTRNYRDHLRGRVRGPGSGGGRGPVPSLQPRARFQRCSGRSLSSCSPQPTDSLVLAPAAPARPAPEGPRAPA

Urotensin-2 receptor [2] = molecular target: T2, Urotensin-2 receptor (Rattus norvegicus, UniProt P49684); assay: Agonist activity at UT2 receptor in Albino rat aorta assessed as induction of aortic contraction
T2 sequence (P49684 whole entry): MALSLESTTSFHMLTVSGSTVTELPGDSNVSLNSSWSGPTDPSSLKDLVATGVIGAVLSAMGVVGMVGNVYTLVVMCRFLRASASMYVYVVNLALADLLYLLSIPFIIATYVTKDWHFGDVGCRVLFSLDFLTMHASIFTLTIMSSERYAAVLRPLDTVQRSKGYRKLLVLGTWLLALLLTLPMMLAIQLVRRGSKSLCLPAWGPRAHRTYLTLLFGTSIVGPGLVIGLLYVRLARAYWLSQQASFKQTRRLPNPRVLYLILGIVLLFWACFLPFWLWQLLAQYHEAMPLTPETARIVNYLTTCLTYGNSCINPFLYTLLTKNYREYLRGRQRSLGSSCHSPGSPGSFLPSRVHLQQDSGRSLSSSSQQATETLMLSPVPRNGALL

[3] = molecular target: T3, Urotensin-2 receptor (Rattus norvegicus) (UniProt P49684); assay: Antagonist activity at UT2 receptor in Albino rat aorta assessed as inhibition of […] aortic contraction; assay type: functional, tissue-based
T3 sequence (whole entry): T2 sequence (P49684 whole entry)

| Compound | Ki (Urotensin-2 receptor [1]) [nM] | EC50 (Urotensin-2 receptor [2]) [nM] | pKb [3] |
| --- | --- | --- | --- |
| CC(C)[C@H](NC(=O)[C@@H]1CSSC(C)(C)[C@H](NC(=O)[C@H](C)N)C(=O)N[C@@H](Cc2ccccc2)C(=O)N[C@H](Cc2c[nH]c3ccccc23)C(=O)N[C@@H](CCCN)C(=O)N[C@@H](Cc2ccc(O)cc2)C(=O)N1)C(=O)O | 1.66 | – | – |
| CC(C)[C@H](NC(=O)[C@@H]1CSSC(C)(C)[C@H](NC(=O)[C@@H](N)Cc2ccc([N+](=O)[O-])cc2)C(=O)N[C@@H](Cc2ccccc2)C(=O)N[C@H](Cc2c[nH]c3ccccc23)C(=O)N[C@@H](CCCN)C(=O)N[C@@H](Cc2ccc(O)cc2)C(=O)N1)C(=O)O | 15.8 | – | – |
| CC(C)[C@H](NC(=O)[C@@H]1CSSC(C)(C)[C@H](NC(=O)[C@@H](N)Cc2ccccc2)C(=O)N[C@@H](Cc2ccccc2)C(=O)N[C@H](Cc2c[nH]c3ccccc23)C(=O)N[C@@H](CCCN)C(=O)N[C@@H](Cc2ccc(O)cc2)C(=O)N1)C(=O)O | 19.5 | – | – |
| CC(C)[C@H](NC(=O)[C@@H]1CSSC(C)(C)[C@H](NC(=O)[C@@H](N)Cc2ccc(Cl)cc2)C(=O)N[C@@H](Cc2ccccc2)C(=O)N[C@H](Cc2c[nH]c3ccccc23)C(=O)N[C@@H](CCCN)C(=O)N[C@@H](Cc2ccc(O)cc2)C(=O)N1)C(=O)O | 9.55 | – | – |
| CC(C)[C@H](NC(=O)[C@@H]1CSSC(C)(C)[C@H](NC(=O)[C@@H](N)CCCCN)C(=O)N[C@@H](Cc2ccccc2)C(=O)N[C@H](Cc2c[nH]c3ccccc23)C(=O)N[C@@H](CCCN)C(=O)N[C@@H](Cc2ccc(O)cc2)C(=O)N1)C(=O)O | 219 | – | – |
| CC(C)[C@H](NC(=O)[C@@H]1CSSC(C)(C)[C@H](NC(=O)[C@@H](N)Cc2cccc3ccccc23)C(=O)N[C@@H](Cc2ccccc2)C(=O)N[C@H](Cc2c[nH]c3ccccc23)C(=O)N[C@@H](CCCN)C(=O)N[C@@H](Cc2ccc(O)cc2)C(=O)N1)C(=O)O | 3.89 | – | – |
| CC(C)[C@H](NC(=O)[C@@H]1CSSC(C)(C)[C@H](NC(=O)[C@@H]2Cc3ccccc3CN2)C(=O)N[C@@H](Cc2ccccc2)C(=O)N[C@H](Cc2c[nH]c3ccccc23)C(=O)N[C@@H](CCCN)C(=O)N[C@@H](Cc2ccc(O)cc2)C(=O)N1)C(=O)O | 9.33 | – | – |
| CC(C)[C@H](NC(=O)[C@@H]1CSSC(C)(C)[C@H](NC(=O)[C@@H](N)Cc2ccc3ccccc3c2)C(=O)N[C@@H](Cc2ccccc2)C(=O)N[C@H](Cc2c[nH]c3ccccc23)C(=O)N[C@@H](CCCN)C(=O)N[C@@H](Cc2ccc(O)cc2)C(=O)N1)C(=O)O | 11.7 | – | – |
| CC(C)[C@H](NC(=O)[C@@H]1CSSC(C)(C)[C@H](NC(=O)[C@H](C)N)C(=O)N[C@@H](Cc2ccccc2)C(=O)N[C@@H](Cc2c[nH]c3ccccc23)C(=O)N[C@@H](CCCCN)C(=O)N[C@@H](Cc2ccc(O)cc2)C(=O)N1)C(=O)O | 0.794 | 9.12 | – |
| CC(C)[C@H](NC(=O)[C@@H]1CSSC(C)(C)[C@@H](NC(=O)[C@@H](N)CCCCN)C(=O)N[C@@H](Cc2ccccc2)C(=O)N[C@H](Cc2c[nH]c3ccccc23)C(=O)N[C@@H](CCCN)C(=O)N[C@@H](Cc2ccc(O)cc2)C(=O)N1)C(=O)O | – | – | 7.49 |
| CC(C)[C@H](NC(=O)[C@@H]1CSSC(C)(C)[C@@H](NC(=O)[C@@H](N)Cc2ccc(Cl)cc2)C(=O)N[C@@H](Cc2ccccc2)C(=O)N[C@H](Cc2c[nH]c3ccccc23)C(=O)N[C@@H](CCCN)C(=O)N[C@@H](Cc2ccc(O)cc2)C(=O)N1)C(=O)O | – | – | 7.85 |
| CC(C)[C@H](NC(=O)[C@@H]1CSSC(C)(C)[C@@H](NC(=O)[C@@H](N)Cc2ccc([N+](=O)[O-])cc2)C(=O)N[C@@H](Cc2ccccc2)C(=O)N[C@H](Cc2c[nH]c3ccccc23)C(=O)N[C@@H](CCCN)C(=O)N[C@@H](Cc2ccc(O)cc2)C(=O)N1)C(=O)O | – | – | 7.9 |
| CC(C)[C@H](NC(=O)[C@@H]1CSSC(C)(C)[C@@H](NC(=O)[C@@H](N)Cc2ccc3ccccc3c2)C(=O)N[C@@H](Cc2ccccc2)C(=O)N[C@H](Cc2c[nH]c3ccccc23)C(=O)N[C@@H](CCCN)C(=O)N[C@@H](Cc2ccc(O)cc2)C(=O)N1)C(=O)O | – | – | 7.89 |
| CC(C)[C@H](NC(=O)[C@@H]1CSSC(C)(C)[C@@H](NC(=O)[C@@H](N)Cc2cccc3ccccc23)C(=O)N[C@@H](Cc2ccccc2)C(=O)N[C@H](Cc2c[nH]c3ccccc23)C(=O)N[C@@H](CCCN)C(=O)N[C@@H](Cc2ccc(O)cc2)C(=O)N1)C(=O)O | – | – | 8.5 |
| CC(C)[C@H](NC(=O)[C@@H]1CSSC(C)(C)[C@@H](NC(=O)[C@@H](N)Cc2ccccc2)C(=O)N[C@@H](Cc2ccccc2)C(=O)N[C@H](Cc2c[nH]c3ccccc23)C(=O)N[C@@H](CCCN)C(=O)N[C@@H](Cc2ccc(O)cc2)C(=O)N1)C(=O)O | – | – | 8.68 |
| CC(C)[C@H](NC(=O)[C@@H]1CSSC(C)(C)[C@@H](NC(=O)[C@@H]2Cc3ccccc3CN2)C(=O)N[C@@H](Cc2ccccc2)C(=O)N[C@H](Cc2c[nH]c3ccccc23)C(=O)N[C@@H](CCCN)C(=O)N[C@@H](Cc2ccc(O)cc2)C(=O)N1)C(=O)O | – | – | 8.94 |
| CC(C)[C@H](NC(=O)[C@@H]1CSSC(C)(C)[C@@H](NC(=O)[C@H](C)N)C(=O)N[C@@H](Cc2ccccc2)C(=O)N[C@H](Cc2c[nH]c3ccccc23)C(=O)N[C@@H](CCCN)C(=O)N[C@@H](Cc2ccc(O)cc2)C(=O)N1)C(=O)O | – | – | 7.84 |
| CC(C)[C@H](NC(=O)[C@@H]1CSSC[C@H](NC(=O)[C@@H](N)CC(=O)O)C(=O)N[C@@H](Cc2ccccc2)C(=O)N[C@@H](Cc2c[nH]c3ccccc23)C(=O)N[C@@H](CCCCN)C(=O)N[C@@H](Cc2ccc(O)cc2)C(=O)N1)C(=O)O (H-DCFWKYCV-OH; disulfide 2-7) | – | 2.51 | – |
| CC(C)[C@H](NC(=O)[C@@H]1CSSC(C)(C)[C@H](NC(=O)[C@@H](N)CC(=O)O)C(=O)N[C@@H](Cc2ccccc2)C(=O)N[C@@H](Cc2c[nH]c3ccccc23)C(=O)N[C@@H](CCCCN)C(=O)N[C@@H](Cc2ccc(O)cc2)C(=O)N1)C(=O)O (H-D[Pen]FWKYCV-OH; disulfide 2-7) | – | 0.251 | – |
| CC(C)[C@H](NC(=O)[C@@H]1CSSC(C)(C)[C@H](NC(=O)[C@@H](N)Cc2ccccc2)C(=O)N[C@@H](Cc2ccccc2)C(=O)N[C@@H](Cc2c[nH]c3ccccc23)C(=O)N[C@@H](CCCCN)C(=O)N[C@@H](Cc2ccc(O)cc2)C(=O)N1)C(=O)O (H-F[Pen]FWKYCV-OH; disulfide 2-7) | 0.282 | 0.661 | – |
| CC(C)[C@H](NC(=O)[C@@H]1CSSC(C)(C)[C@H](NC(=O)[C@@H](N)CCCCN)C(=O)N[C@@H](Cc2ccccc2)C(=O)N[C@@H](Cc2c[nH]c3ccccc23)C(=O)N[C@@H](CCCCN)C(=O)N[C@@H](Cc2ccc(O)cc2)C(=O)N1)C(=O)O (H-K[Pen]FWKYCV-OH; disulfide 2-7) | 9.33 | 6.03 | – |
| CC(C)[C@H](NC(=O)[C@@H]1CSSC(C)(C)[C@H](NC(=O)[C@@H](N)Cc2cccc3ccccc23)C(=O)N[C@@H](Cc2ccccc2)C(=O)N[C@@H](Cc2c[nH]c3ccccc23)C(=O)N[C@@H](CCCCN)C(=O)N[C@@H](Cc2ccc(O)cc2)C(=O)N1)C(=O)O (H-[1Nal][Pen]FWKYCV-OH; disulfide 2-7) | 26.3 | 102 | – |
| CC(C)[C@H](NC(=O)[C@@H]1CSSC(C)(C)[C@H](NC(=O)[C@@H](N)Cc2ccc3ccccc3c2)C(=O)N[C@@H](Cc2ccccc2)C(=O)N[C@@H](Cc2c[nH]c3ccccc23)C(=O)N[C@@H](CCCCN)C(=O)N[C@@H](Cc2ccc(O)cc2)C(=O)N1)C(=O)O (H-[2Nal][Pen]FWKYCV-OH; disulfide 2-7) | 6.46 | 5.25 | – |
| CC(C)[C@H](NC(=O)[C@@H]1CSSC(C)(C)[C@H](NC(=O)[C@@H](N)Cc2ccc(Cl)cc2)C(=O)N[C@@H](Cc2ccccc2)C(=O)N[C@@H](Cc2c[nH]c3ccccc23)C(=O)N[C@@H](CCCCN)C(=O)N[C@@H](Cc2ccc(O)cc2)C(=O)N1)C(=O)O (H-[Phe(4-Cl)][Pen]FWKYCV-OH; disulfide 2-7) | 0.891 | 1.38 | – |
| CC(C)[C@H](NC(=O)[C@@H]1CSSC(C)(C)[C@H](NC(=O)[C@@H](N)Cc2ccc([N+](=O)[O-])cc2)C(=O)N[C@@H](Cc2ccccc2)C(=O)N[C@@H](Cc2c[nH]c3ccccc23)C(=O)N[C@@H](CCCCN)C(=O)N[C@@H](Cc2ccc(O)cc2)C(=O)N1)C(=O)O (H-[Phe(4-NO2)][Pen]FWKYCV-OH; disulfide 2-7) | 13.5 | 72.4 | – |
| CC(C)[C@H](NC(=O)[C@@H]1CSSC(C)(C)[C@H](NC(=O)[C@@H]2Cc3ccccc3CN2)C(=O)N[C@@H](Cc2ccccc2)C(=O)N[C@@H](Cc2c[nH]c3ccccc23)C(=O)N[C@@H](CCCCN)C(=O)N[C@@H](Cc2ccc(O)cc2)C(=O)N1)C(=O)O (H-[Tic][Pen]FWKYCV-OH; disulfide 2-7) | 2.63 | 1.35 | – |
| CC(C)[C@H](NC(=O)[C@@H]1CSSC[C@H](NC(=O)[C@H](CC(=O)O)NC(=O)[C@@H]2CCCN2C(=O)[C@@H](NC(=O)[C@@H](N)CCC(=O)O)[C@@H](C)O)C(=O)N[C@@H](Cc2ccccc2)C(=O)N[C@@H](Cc2c[nH]c3ccccc23)C(=O)N[C@@H](CCCCN)C(=O)N[C@@H](Cc2ccc(O)cc2)C(=O)N1)C(=O)O [HUMAN UROTENSIN II] | – | 5.01 | – |
